The results in this text go back to patent publication US9399649B2, “Compounds for treating spinal muscular atrophy” (PTC Therapeutics Inc., priority 2012, dated 2016).

In assay [1] the test system is human SMN1 minigene full length and Δ7 mRNA. The assay can be described thus: Human SMN1 minigene mRNA end-point semi-quantitative RT-PCR splicing assay in cultured cells. It counts as cell-based. To be noted: HEK293H cells transfected with SMN1-A minigene, increasing concentrations, 7 hours, FIG. 17. The source says:
The RT-PCR assay is used to visualize and quantify the levels of the human SMN1 minigene full length and Δ7 mRNA in primary cells and cell lines expressing the human SMN1 minigene construct treated with a test compound.
Using the procedure for the preparation of the SMN2 minigene construct described in Biological Example 1, the SMN1 version of the minigene is generated by changing the sixth nucleotide of exon 7 (a thymine residue) of the SMN2-A minigene construct to cytosine using site directed mutagenesis. Thus, similar to the SMN2-A minigene construct, the SMN1 minigene construct has a single adenine residue inserted after nucleic residue 48 of exon 7. The SMN1 minigene construct is referred to as SMN1-A.
HEK293H cells (10,000 cells/well/199 μL) were transfected, using FuGENE-6 reagent, in a 96-well plate with 15 ng of the SMN1-A minigene reporter plasmid per well. Cells were incubated for 24 hours following transfection. Test compounds were serially diluted 3.16-fold in 100% DMSO to generate a 7-point concentration curve. A solution of test compound (1 μL, 200× in DMSO) was added to each test well. 1 μL DMSO was added to each control well. The plate was incubated for 7 hours in a cell culture incubator (37° C., 5% CO2, 100% relative humidity). The cells were then lysed in Cells-To-Ct lysis buffer and the lysates were stored at 80° C.
Two SMN spliced mRNA are generated from the SMN1 minigene. The term “SMN1 minigene FL” refers to the first spliced product containing exon 7, corresponding to full length SMN1 mRNA. The term “SMN1 minigene A7” refers to the second product lacking exon 7.
SMN minigene FL and Δ7 mRNA are amplified using the primers in Table 11. Primer SMN Forward C (SEQ ID NO. 11) hybridizes to a nucleotide sequence in exon 6 (nucleotide 43 to nucleotide 63), primer SMN Reverse A (SEQ ID NO. 2) hybridizes to a nucleotide sequence in the coding sequence of Firefly luciferase. The combination of these two oligonucleotides detects only SMN1 or SMN2 minigenes (RT-PCR) and will not detect endogenous SMN1 or SMN2 genes. Since the SMA patient cells used in Example 16 were transfected with only the human SMN1 minigene, RT-PCR can visualize and quantify only SMN1 minigene full-length and SMN1 minigene Δ7 mRNA.
To synthesize cDNA, 5 μL of lysate, 4 μL of 5× iScript reaction mix, 1 μL of reverse transcriptase, and 10 μL of water are combined and incubated 5 min at 25° C. followed by 30 min at 42° C., followed by 5 min at 85° C. The cDNA solution is stored at −20° C.
To perform endpoint PCR, 5 μL of cDNA, 0.2 μL of 100 μM forward primer, 0.2 μL of 100 μM reverse primer, and 22.5 μL of polymerase super mix are combined in a 96 well semiskirted PCR plate. PCR is carried out at the following temperatures for the indicated time: Step 1: 94° C. (2 min), Step 2: 94° C. […]

Assay [2] in a line: Body weight of neonatal Δ7 SMA mice. It counts as in vivo. The conditions noted are these: neonatal SMA Δ7 homozygous knockout mice, IP QD PND 3 to PND 23, then orally BID from PND 24 until study end, FIG. 13. The procedure: The change in body weight of neonatal SMA mice is used to determine whether treatment with a test compound improves body weight.
SMA Δ7 homozygous knockout mice are dosed intraperitoneally (IP) with test compound or vehicle (100% DMSO) QD from PND 3 until the dose regimen is switched to an oral dose BID in 0.5% hydroxypropylmethyl cellulose (HPMC) with 0.1% Tween-80 at a dose 3.16-fold higher than the dose used for IP. Body weights of SMA Δ7 mice treated with test compound or vehicle and age matched heterozygous mice are recorded every day.

The test system of assay [3] is SMA Δ7 homozygous knockout mice. The experiment in a line: Righting reflex in neonatal Δ7 SMA mice. It counts as in vivo. The conditions noted are these: IP QD from PND 3, measured PND 10, 14 and 18, FIG. 14. How it is done:
The functional change in righting reflex of neonatal SMA mice is used to determine whether treatment with a test compound improves righting reflex.
SMA Δ7 homozygous knockout mice are dosed intraperitoneally (IP) with test compound or vehicle (100% DMSO) QD from PND 3 until the dose regimen is switched to an oral dose BID in 0.5% hydroxypropylmethyl cellulose (HPMC) with 0.1% Tween-80 at a dose 3.16-fold higher than the dose used for IP. The righting reflex time is measured as the time taken by a mouse to flip over onto its feet after being laid on its back. Righting reflex is measured five times for each mouse (allowing a maximal time of 30 sec for each try) with 5 minutes between each measurement. The righting reflex time for SMA Δ7 homozygous knockout mice treated with test compound or vehicle and age-matched heterozygous mice is measured on PND 10, 14 and 18 and plotted.

On to `Cc1cn2cc(-c3cc4ccc(N5CCN6CCC[C@H]6C5)cc4c(=O)o3)nc2c(C)n1` [Cpd 69, 3-(6,8-dimethylimidazo[1,2-a]pyrazin-2-yl)-7-[(8aS)-hexahydropyrrolo[1,2-a]pyrazin-2(1H)-yl]-1H-isochromen-1-one], for which, in assay [1], the “SMN1 minigene FL mRNA (gel band)” value was “progressively more SMN1 minigene FL mRNA” and the “SMN1 minigene Δ7 mRNA (gel band)” value was “less SMN1 minigene Δ7 mRNA”. For the same molecule, in assay [2], the body weight entry is listed as “improved compared to vehicle treated mice”. For the same molecule, the righting reflex result in assay [3] is reported as “improved compared to vehicle treated mice”.
On to `Cc1cn2cc(-c3cc4ccc(N5CCN(C)CC5)cc4c(=O)o3)nc2c(C)n1` [Cpd 65, 3-(6,8-dimethylimidazo[1,2-a]pyrazin-2-yl)-7-(4-methylpiperazin-1-yl)-1H-isochromen-1-one], for which, in assay [1], the “SMN1 minigene FL mRNA (gel band)” value is “progressively more SMN1 minigene FL mRNA” and the “SMN1 minigene Δ7 mRNA (gel band)” value is “less SMN1 minigene Δ7 mRNA”. Also, in assay [2], the body weight result was “improved compared to vehicle treated mice”. For the same molecule, in assay [3], the righting reflex result is listed as “improved compared to vehicle treated mice”.
